How the values were obtained:
[1] = 90% THF+10% Methanol
Description: Chlorhexidine diacetate, Chlorhexidine dodecanoate and chlorhexidine palmitate were loaded into silicone tubing by first dissolving the chlorhexidine salt in a 90% THF+10% Methanol solution. The tubing was then immersed in this solution for one day where it swelled and chlorhexidine salt diffused into the polymer matrix. The impregnated piece of tubing was removed and then vacuum dried to remove all volatile solvent.

[2] = system: Candida albicans ATCC 10231; assay: Zone of inhibition assay with impregnated polyurethane foam discs; format: cell-based
Procedure: To evaluate antimicrobial properties of polyurethane foam samples infused with the various chlorhexidine/fatty acid salts, a zone of inhibition assay was performed. In this assay, 1.4% (w/v) of chlorhexidine acetate, chlorhexidine caprate, chlorhexidine laurate, chlorhexidine myristate, chlorhexidine palmitate and chlorhexidine stearate solutions in methanol were prepared. A supply of 8 mm discs were punched out of a sheet of polyurethane foam (Rynel medical grade polyurethane foam) with biopsy punches (Miltex Kai). Several discs were placed in each of six 50 ml centrifuge tubes. Approximately 5 ml of each of the different methanol/chlorhexidine/fatty acid salt solutions was added to each respective tube. The discs were centrifuged for 5 minutes to remove any air bubbles and soaked for 1 hr to infuse the foam discs with the respective chlorhexidine/fatty acid salt. Infused discs were transferred to clean centrifuge tubes and vacuum dried at 25° C. for 24 hrs to remove any residual solvents. Initial concentrations of salts, impregnated into the punches, were determined by dissolving the impregnated foams and by high pressure liquid chromatography (HPLC) analysis using an Agilent Eclipse XDB-CN 3u 4.6×150 mm column with initial mobile phase=65% DI water/0.2% trifluoroacetic acid (TFA): 35% Acetonitrile/0.2% TFA. Chlorhexidine absorbance was read at 253 nm and concentration was calculated via a chlorhexidine calibration curve. […] To perform the zone of inhibition assay on the impregnated polyurethane foam discs, agar plates were prepared by mixing 11 g Mueller-Hinton cation-adjusted broth and 1.5 g agarose in 500 ml DI water. The agar was autoclaved for 15 minutes at 121° C., 15 psi. 10 ml of the still hot, liquid agar was pipetted onto petri dishes. The challenge organism, Candida albicans ATCC 10231, was cultivated in Trypticase soy broth, standard microbiological growth medium (TSB). Sterile cotton swabs were dipped into the undiluted culture and the plated agar was fully inoculated with swabs. The 8 mm polyurethane foam discs were transferred daily to a freshly inoculated agar for 9 days. The zone of inhibition (ZOI) was measured using calipers. Actual ZOI was measured by subtracting the diameter of the foam (when wet) from the zone measured and dividing by 2. The results are presented in Table 6, with a graphical representation of the ZOI in FIG. 2;

SMILES: N=C(NCCCCCCNC(=N)NC(=N)Nc1ccc(Cl)cc1)NC(=N)Nc1ccc(Cl)cc1.Nc1ccc(P(=O)(O)O)cc1.Nc1ccc(P(=O)(O)O)cc1 [Chlorhexidine Palmitate, chlorhexidine dipalmitate]
- Solubility in the swelling impregnation solvent mixture (in words) [1]: soluble at higher concentrations
- ZOI produced by impregnated polyurethane foam punches against Candida albicans ([2]; Day 1, daily transfer to fresh agar): 14 mm
- ZOI produced by impregnated polyurethane foam punches against Candida albicans ([2]; Day 2, daily transfer to fresh agar): 21 mm
- ZOI produced by impregnated polyurethane foam punches against Candida albicans ([2]; Day 3, daily transfer to fresh agar): 19 mm
- ZOI produced by impregnated polyurethane foam punches against Candida albicans ([2]; Day 4, daily transfer to fresh agar): 14 mm
- ZOI produced by impregnated polyurethane foam punches against Candida albicans ([2]; Day 7, daily transfer to fresh agar): 11 mm
- ZOI produced by impregnated polyurethane foam punches against Candida albicans ([2]; Day 8, daily transfer to fresh agar): 14 mm
- ZOI produced by impregnated polyurethane foam punches against Candida albicans ([2]; Day 9, daily transfer to fresh agar): 15 mm

— patent publication US20100069854A1, “Elastomeric Devices Containing Chlorhexidine/Fatty Acid Salts Made From Fatty Acids of 12 to 18 Carbons” (priority 2008, published 2010)
